Patent US20170150719A1, “FUNGICIDAL PYRAZOLES AND THEIR MIXTURES” (E I DU PONT DE NEMOURS AND COMPANY, priority 2010, published 2017)
Marks after values point to notes of the source that are not given here.

Assays:
[1] = tested on: Puccinia recondita f. sp. tritici; test: Test H: wheat leaf rust, preventive spray on wheat seedlings, visual disease rating; details: wheat leaf rust, 100 = 100% disease control; for Test H rating (disease control): sprayed the day before inoculation, 0 = no disease control; for Test H rating (% disease control): preventive spray, rating without asterisk
Description: (§2) General protocol for preparing test suspensions for Tests A-I: the test compounds were first dissolved in acetone in an amount equal to 3% of the final volume and then suspended at the desired concentration (in ppm) in acetone and purified water (50/50 mix by volume) containing 250 ppm of the surfactant Trem® 014 (polyhydric alcohol esters). The resulting test suspensions were then used in Tests A-I. Each test was conducted in triplicate, and the results were averaged. Spraying a 200 ppm test suspension to the point of run-off on the test plants was the equivalent of a rate of about 800 g/ha. Unless otherwise indicated, the rating values indicate a 200 ppm test suspension was used. (An asterisk “*” next to the rating value indicates a 40 ppm test suspension was used.)
The test suspension was sprayed to the point of run-off on wheat seedlings. The following day the seedlings were inoculated with a spore suspension of Puccinia recondita f. sp. tritici (the causal agent of wheat leaf rust) and incubated in a saturated atmosphere at 20° C. for 24 h, and then moved to a growth chamber at 20° C. for 6 days, after which time visual disease ratings were made.

[2] = tested on: Blumeria graminis f. sp. tritici; test: Test I: wheat powdery mildew, preventive spray on wheat seedlings, visual disease rating; details: wheat powdery mildew; for Test I rating (disease control) / Test I rating (% disease control): 100 = 100% disease control; for Test I rating (disease control): 0 = no disease control relative to the controls; for Test I rating (% disease control): preventive spray, rating without asterisk
Alternaria solani = test: Test B: tomato early blight, preventive spray on tomato seedlings, visual disease rating; details: tomato early blight, 100 = 100% disease control; for Test B rating (disease control): 0 = no disease control relative to the controls; for Test B rating (% disease control): preventive spray, rating without asterisk
Description: as §2
The test suspension was sprayed to the point of run-off on tomato seedlings. The following day the seedlings were inoculated with a spore suspension of Alternaria solani (the causal agent of tomato early blight) and incubated in a saturated atmosphere at 27° C. for 48 h, and then moved to a growth chamber at 20° C. for 5 days, after which time visual disease ratings were made.

Septoria nodorum = test: Test E: Septoria glume blotch, preventive spray on wheat seedlings, visual disease rating; details: 100 = 100% disease control; for Test E rating (disease control): Septoria glume blotch, 0 = no disease control relative to the controls; for Test E rating (% disease control): Septoria glume blotch on wheat, preventive spray, rating without asterisk
[3] = tested on: Puccinia recondita f. sp. tritici; test: Test G: wheat leaf rust, spray after inoculation (curative) on wheat seedlings, visual disease rating; assay type: in vivo; details: 100 = 100% disease control; for Test G rating (disease control): sprayed after inoculation, 0 = no disease control; for Test G rating (% disease control): spray after inoculation, rating without asterisk
Description: (§1) A hyphen (-) indicates no test results.

Septoria tritici = test: Test F: wheat leaf blotch, preventive spray on wheat seedlings, visual disease rating; assay type: in vivo; details: 100 = 100% disease control; for Test F rating (disease control): 0 = no disease control relative to the controls; for Test F rating (% disease control): preventive spray, rating without asterisk
Description: as §1

Botrytis cinerea = test: Test A: tomato Botrytis, preventive spray on tomato seedlings, visual disease rating; details: tomato Botrytis, 100 = 100% disease control; for Test A rating (disease control): 0 = no disease control relative to the controls; for Test A rating (% disease control): preventive spray, 0 = no control relative to controls, rating without asterisk

| Structure (SMILES) | Test H rating (disease control) [1] [%] | Test I rating (disease control) [2] [%] | Test B rating (disease control) (Alternaria solani) [%] | Test E rating (disease control) (Septoria nodorum) [%] | Test G rating (disease control) [3] [%] | Test F rating (disease control) (Septoria tritici) [%] | Test A rating (disease control) (Botrytis cinerea) [%] | Test I rating (disease control), value marked * ([2]; rating marked with asterisk (*), not explained in the text shown) | Test H rating (% disease control) [1] [%] | Test I rating (% disease control) [2] [%] | Test B rating (% disease control) (Alternaria solani) [%] | Test E rating (% disease control) (Septoria nodorum) [%] | Test G rating (% disease control) [3] [%] | Test F rating (% disease control) (Septoria tritici) [%] | Test A rating (% disease control) (Botrytis cinerea) [%] |
| --- | --- | --- | --- | --- | --- | --- | --- | --- | --- | --- | --- | --- | --- | --- | --- |
| Cc1nn(C)c(Nc2ccc(Br)cc2F)c1-c1ccc(F)cc1Br [compound 169] | 96 | 99 | 0 | 60 | 23 | 100 | 100 | – | – | – | – | – | – | – | – |
| Cc1nn(C)c(Nc2c(Cl)cc(Cl)cc2Cl)c1-c1ccc(F)cc1Cl [compound 170] | 98 | 79 | 0 | 0 | 79 | 100 | 65 | – | – | – | – | – | – | – | – |
| Cc1nn(C)c(Nc2ccc(Br)cc2Cl)c1-c1ccc(F)cc1Cl [compound 172] | 100 | 100 | 73 | 60 | 0 | 100 | 100 | – | – | – | – | – | – | – | – |
| Cc1nn(C)c(Nc2ccc(Br)cc2Cl)c1-c1ccc(F)cc1Br [compound 173] | 99 | 99 | 0 | 40 | 0 | 100 | 100 | – | – | – | – | – | – | – | – |
| Cc1nn(C)c(Nc2c(Cl)cc(Cl)cc2Cl)c1-c1ccc(F)cc1Br [compound 174] | 99 | – | 0 | 0 | 0 | 100 | 95 | 99* % | – | – | – | – | – | – | – |
| Cc1nn(C)c(Nc2ccc(F)cc2I)c1-c1ccc(F)cc1F [compound 175] | 100 | 100 | 97 | 73 | 41 | 100 | 100 | – | – | – | – | – | – | – | – |
| Cc1nn(C)c(Nc2ccc(F)cc2I)c1-c1ccc(F)cc1Cl [compound 181] | – | – | – | – | – | – | – | – | 99 | 100 | 99 | 99 | 99 | 100 | 100 |
| Cc1nn(C)c(Nc2c(F)cc(Cl)cc2I)c1-c1ccc(F)cc1Cl [compound 182] | – | – | – | – | – | – | – | – | 100 | 100 | 100 | 100 | 100 | 100 | 100 |
| Cc1nn(C)c(Nc2ccc(Br)cc2Br)c1-c1ccc(F)cc1Cl [compound 183] | – | – | – | – | – | – | – | – | 96 | 98 | 0 | 0 | 54 | 100 | 100 |
| Cc1nn(C)c(Nc2ccc(Br)cc2Br)c1-c1ccc(F)cc1F [compound 184] | – | – | – | – | – | – | – | – | 98 | 100 | 58 | 60 | 0 | 100 | 100 |
| Cc1nn(C)c(Nc2c(Cl)cc(Cl)cc2I)c1-c1ccc(F)cc1Cl [compound 197] | – | – | – | – | – | – | – | – | 97 | 94 | 77 | 0 | 9 | 100 | 100 |
| CCOc1cc(F)c(-c2c(C)nn(C)c2Nc2c(F)cc(Cl)cc2Cl)c(F)c1 [compound 198] | – | – | – | – | – | – | – | – | 80 | 96 | 100 | 60 | 9 | 100 | 100 |
| COc1ccc(-c2c(C)nn(C)c2Nc2c(F)cc(Cl)cc2Cl)c(Cl)c1 [compound 201] | – | – | – | – | – | – | – | – | 100 | 97 | 100 | 99 | 98 | 100 | 100 |
| CCOc1ccc(-c2c(C)nn(C)c2Nc2c(F)cc(Cl)cc2Cl)c(Cl)c1 [compound 202] | – | – | – | – | – | – | – | – | 92 | 95 | 77 | 0 | 35 | 100 | 99 |
| COc1ccc(-c2c(C)nn(C)c2Nc2c(F)cc(F)cc2Cl)c(Cl)c1 [compound 203] | – | – | – | – | – | – | – | – | 100 | 98 | 100 | 73 | 79 | 100 | 95 |
| COc1ccc(-c2c(C)nn(C)c2Nc2c(F)cc(Cl)cc2F)c(Cl)c1 [compound 204] | – | – | – | – | – | – | – | – | 100 | 100 | 99 | 99 | 99 | 100 | 99 |
| COc1ccc(-c2c(C)nn(C)c2Nc2c(Cl)cc(F)cc2Cl)c(Cl)c1 [compound 205] | – | – | – | – | – | – | – | – | 99 | 21 | 31 | 0 | 0 | 100 | 59 |
| CCOc1ccc(-c2c(C)nn(C)c2Nc2c(F)cc(F)cc2Cl)c(Cl)c1 [compound 206] | – | – | – | – | – | – | – | – | 99 | 100 | 100 | 99 | 0 | 100 | 99 |
| CCOc1ccc(-c2c(C)nn(C)c2Nc2c(F)cc(Cl)cc2F)c(Cl)c1 [compound 207] | – | – | – | – | – | – | – | – | 94 | 99 | 99 | 86 | 0 | 100 | 94 |
| CCOc1ccc(-c2c(C)nn(C)c2Nc2c(Cl)cc(F)cc2Cl)c(Cl)c1 [compound 208] | – | – | – | – | – | – | – | – | 85 | 27 | 0 | 0 | 0 | 99 | 18 |
| CCOc1ccc(-c2c(C)nn(C)c2Nc2ccc(F)cc2F)c(Cl)c1 [compound 209] | – | – | – | – | – | – | – | – | 92 | 100 | 95 | 0 | 0 | 100 | 98 |
| Cc1nn(C)c(Nc2c(Cl)cc(Cl)cc2I)c1-c1ccc(F)cc1F [compound 210] | – | – | – | – | – | – | – | – | 97 | 0 | 0 | 0 | 0 | 100 | 3 |
| Cc1nn(C)c(Nc2c(F)cc(Br)cc2Br)c1-c1ccc(F)cc1F [compound 211] | – | – | – | – | – | – | – | – | 100 | 100 | 99 | 99 | 82 | 100 | 98 |
| Cc1nn(C)c(Nc2c(F)cc(Br)cc2Br)c1-c1ccc(F)cc1Cl [compound 212] | – | – | – | – | – | – | – | – | 100 | 100 | 100 | 100 | 97 | 100 | 98 |
